Data: publication PMC3220932 (Pulmonary pharmacology & therapeutics, 2011)

Legend:
[1] = system: human airway epithelial cells; test: Cellular drug uptake by airway epithelial cells; details: 37°C, 15 min; for cellular uptake in airway epithelial cells: 200 nmol/l [3H]-formoterol or [3H]-salmeterol
[2] = system: human bronchial smooth muscle cells; test: Cellular drug uptake by bronchial smooth muscle cells; details: 37°C, 15 min; for cellular uptake in smooth muscle cells: 200 nmol/l [3H]-formoterol or [3H]-salmeterol
OCT3 = biological target: T1, OCT3 (Homo sapiens, UniProt O75751); details: bronchial smooth muscle cells, OCT3 targeted shRNA
T1 sequence (O75751 1-556): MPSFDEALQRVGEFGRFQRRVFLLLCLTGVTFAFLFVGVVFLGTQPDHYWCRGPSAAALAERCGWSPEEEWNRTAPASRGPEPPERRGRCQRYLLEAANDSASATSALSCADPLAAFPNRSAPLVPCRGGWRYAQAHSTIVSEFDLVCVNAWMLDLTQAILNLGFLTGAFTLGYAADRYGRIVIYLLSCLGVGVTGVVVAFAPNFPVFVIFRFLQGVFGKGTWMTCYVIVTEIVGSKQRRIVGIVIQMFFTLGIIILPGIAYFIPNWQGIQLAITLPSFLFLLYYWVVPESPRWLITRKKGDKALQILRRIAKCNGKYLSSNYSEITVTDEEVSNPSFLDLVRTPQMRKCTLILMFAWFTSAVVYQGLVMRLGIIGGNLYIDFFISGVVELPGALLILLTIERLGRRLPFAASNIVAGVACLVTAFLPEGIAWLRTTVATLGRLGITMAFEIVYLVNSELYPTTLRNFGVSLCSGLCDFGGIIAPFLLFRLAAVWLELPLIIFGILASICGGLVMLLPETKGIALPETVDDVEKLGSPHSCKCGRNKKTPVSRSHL

[3] = system: human bronchial smooth muscle cells; assay type: cell-based; details: for IC50: read-out: IC50 for rapidly inhibiting formoterol uptake by human bronchial smooth muscle cells, 200 nmol/l [3H]-formoterol, mean, n = 6
[4] = system: human airway epithelial cells; test: Corticosteroid effect on tritiated drug uptake by airway epithelial cells; assay type: cell-based; details: 5 μmol/l

In the case of `COc1ccc(CC(C)NCC(O)c2ccc(O)c(NC=O)c2)cc1` (stereo not shown) [formoterol], the “cellular uptake in airway epithelial cells” value [1] is reported as 8.9 ± 0.5 pmol/mg protein/15 min and the “cellular uptake in smooth muscle cells” value [2] is reported as 28.1 ± 1.6 pmol/mg protein/15 min.
`C[C@]12C[C@H](O)[C@H]3[C@@H](CCC4=CC(=O)CC[C@@]43C)[C@@H]1CC[C@@H]2C(=O)CO` [Corticosterone] was tested, and the “inhibitory effect on formoterol uptake under OCT3 mRNA suppression” value (OCT3) was “reduces”, the “action on formoterol uptake in presence of transcription inhibitor actinomycin D” value ([3]; 5 μM, 100 μM actinomycin D added 60 min prior to transport measurements) was “insensitive” and the “effect on MPP+ uptake by bronchial smooth muscle cells” value ([3]; 5 μmol/l, 15-min incubation) was “significantly reduced”. For the same compound, the “effect on salmeterol uptake in bronchial smooth muscle cells” value ([3]; 5 μmol/l, 15 min) was “insensitive to corticosterone”, the “inhibitory action on formoterol uptake after pretreatment for 45 or 90 min” value ([3]; 5 μmol/l, bronchial smooth muscle cells) was “not enhanced” and the “effect on MPP+ uptake by airway epithelial cells” value ([4]; 15-min incubation) was “but not airway epithelial cells”. The “effect on salmeterol uptake in epithelial cells” value ([4]; 15 min) was “insensitive to corticosterone” and the “rapid inhibitory effect on formoterol uptake in epithelial cells” value ([4]; 15 min) was “not in epithelial cells”.
`CCC(=O)O[C@]1(C(=O)CO)[C@@H](C)C[C@H]2[C@@H]3CCC4=CC(=O)C=C[C@]4(C)[C@@]3(Cl)[C@@H](O)C[C@@]21C` [Beclomethasone 17-monopropionate] was tested, and the IC50 ([3]; 15-min incubation) was 4.04 µM.
In the case of `OCc1cc(C(O)CNCCCCCCOCCCCc2ccccc2)ccc1O` (stereo not shown) [salmeterol], the “cellular uptake in airway epithelial cells” value [1] is reported as 46.6 ± 1.9 pmol/mg protein/15 min and the “cellular uptake in smooth muscle cells” value [2] is reported as 306.9 ± 13.3 pmol/mg protein/15 min.
`CCC(=O)O[C@]1(C(=O)SCF)[C@H](C)C[C@H]2[C@@H]3C[C@H](F)C4=CC(=O)C=C[C@]4(C)[C@@]3(F)[C@@H](O)C[C@@]21C` [Fluticasone propionate] showed an IC50 ([3]; 15-min incubation) of 6.29 µM.
`C[n+]1ccc(-c2ccccc2)cc1` [MPP^+, N-methyl-4-phenylpyridinium] was tested, and the “cellular uptake of MPP+ in epithelial cells” value ([1]; 5 nmol/l [3H]-MPP+) was 0.18 ± 0.03 pmol/mg protein/15 min and the “cellular uptake of MPP+ in smooth muscle cells” value ([2]; 5 nmol/l [3H]-MPP+) was 0.21 ± 0.02 pmol/mg protein/15 min.
